We go through 19 compounds from patent US6900216B2, “Dihydroimidazo[2,1-b]thiazole and dihydro-5h-thiazolo[3,2-A]pyrimidines as antidepressant agents” (Knoll GmbH, priority 2000, dated 2005).

The target of test [1] is T1, 5-HT reuptake sites (Rattus norvegicus, UniProt P31652).
T1 construct: Frontal cortical tissue from the brains of male Charles River rats; from tissue; host or cells: rat frontal cortical membranes
Briefly: 5-HT uptake: displacement of [3H]citalopram from 5-HT reuptake sites, rat frontal cortical membranes. The note with it: for Ki: [3H]citalopram 1.3 nM, rat frontal cortical membranes, fit to data from three experiments; for inhibition at 1 µM: 10^−6 M test compound, single determination, [3H]citalopram. The test is classed as binding. Here is the method:
Frontal cortical tissue from the brains of male Charles River rats weighing 150-250 g was homogenised in ice-cold 50 mM Tris-HCl, pH 7.4 (when measured at 25° C.) containing 120 mM sodium chloride and 5 mM potassium chloride (Tris buffer; 1:30 w/v) and centrifuged at 40,000 g for 10 minutes. The supernatant was discarded and the pellet rehomogenised in Tris buffer, 1:60 w/v, and centrifuged at 40,000 g for 10 minutes. This step was repeated a further time. The final pellet was resuspended in 50 mM Tris-HCl, pH 7.4 containing 120 mM sodium chloride and 5 mM potassium chloride (equivalent to 3.125 mg wet weight of tissue/ml) and used immediately in the binding assay. All centrifugations were performed at 4° C.
Membranes (400 μl; equivalent to 1.25 mg wet weight of tissue/tube) were incubated with 50 μl [^3H]citalopram at a single concentration of 1.3 nM and 50 μl of distilled water (total binding) or 50 μl of test compound (at a single concentration of 10^−6 M or at 10 concentrations ranging from 10^−11-10^−3 M) or 50 μl of paroxetine (0.5 μM; non-specific binding) for 1 h at 27° C. Membrane bound radioactivity was recovered by filtration under vacuum through Skatron 11734 filters presoaked in 0.5% PEI using a Skatron Cell Harvester. Filters were then washed in ice-cold 50 mM Tris-HCl buffer, pH 7.4 (at 25° C., wash setting 9,9,0). The scored filter paper discs were punched out into vials, scintillation fluid added and radioactivity determined by liquid scintillation counting.
(§1) For each of these tests measuring the ability of compounds of Formula I to displace standard ligands from 5-HT1A receptors and 5-hydroxytryptamine (5-HT) and noradrenaline (NA) reuptake sites and muscarinic receptors in vitro, the percentage displacement of specific binding of tritiated ligand by 10^−6 M test compound was calculated in the following way.
(§2) Firstly, specific binding of tritiated ligand in the absence (A) and presence (B) of test compound was determined:
(§3) In the absence of compound: A(dpm)=Total binding (dpm)−Non-specific binding (dpm) In the presence of compound (10^−6 M): B(dpm)=Binding at 10^−6M (dpm)−Non-specific binding (dpm)
(§4) The specific binding of tritiated ligand in the presence (B) of compound was then converted to a percentage of specific binding of tritiated ligand in the absence (A) of compound: % Specific binding at 10^−6 M=B(dpm)/A(dpm)×100
(§5) The percentage displacement of specific binding of tritiated ligand by the test compound (10^−6 M) was then obtained by subtraction of the percentage specific binding in the presence of compound from the percentage specific binding in the absence of compound, which is taken as the maximum binding and so equals 100%:
(§6) % Displacement at 10^−6 M=100−% Specific binding at 10^−6 M.
(§7) In some cases, displacement curves were then produced for compounds which displaced ≧50% of specific binding of the tritiated ligand at 10^−6 M using a range of concentrations of the compound. The Ki was then calculated by simultaneous fitting using equations derived from the Feldman equations by robust non-linear regression to data from three experiments simultaneously (De Lean et al., 1978; Munson and Rodbard, 1980; Feldman, 1992). Munson P J and Rodbard D. Ligand: a versatile computerised approach for characterisation of ligand binding systems. Anal Biochem 1980; 107: 220. Feldman HA. Mathematical theory of complex ligand binding systems at equilibrium: some methods for parameter fitting. Anal Biochem 1992: 48, 317. De Lean A, Munson P J and Rodbard D. Simultaneous analysis of families of sigmoidal curves: application to bioassay, radioligand assay, and physiological dose-response curves. Am J Physiol 1978: 235 (2), E97-E102.
(§8) The results obtained in the above tests for 5-HT1A binding and 5-HT and NA uptake and muscarinic binding for the final products of Examples 1-39 hereinafter are given in Table 1 below. Kis are in nM. % Figures are for % displacement at 10^−6 M for a single determination.

Test [2] has as its target T2, 5-HT1A receptors (Rattus norvegicus, UniProt P19327).
T2 construct: Hippocampal tissue from the brains of male Sprague-Dawley rats; from tissue; host or cells: rat hippocampal membranes
T2 sequence (P19327 1-422): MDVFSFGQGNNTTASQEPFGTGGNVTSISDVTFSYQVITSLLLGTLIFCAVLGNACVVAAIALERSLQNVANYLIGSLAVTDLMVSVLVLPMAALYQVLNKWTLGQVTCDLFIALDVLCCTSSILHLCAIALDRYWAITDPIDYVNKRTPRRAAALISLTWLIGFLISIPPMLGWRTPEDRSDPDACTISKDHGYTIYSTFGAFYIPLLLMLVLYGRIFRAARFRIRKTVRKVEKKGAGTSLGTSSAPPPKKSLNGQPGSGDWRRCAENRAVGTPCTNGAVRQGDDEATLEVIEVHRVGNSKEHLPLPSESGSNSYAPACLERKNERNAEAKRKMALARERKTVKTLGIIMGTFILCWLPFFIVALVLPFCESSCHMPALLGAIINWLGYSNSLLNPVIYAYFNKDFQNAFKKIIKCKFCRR
Briefly: 5-HT1A binding: inhibition of [3H]8-OH-DPAT binding to rat hippocampal membranes. The conditions noted are these: for Ki: [3H]8-OH-DPAT 1 nM, rat hippocampal membranes, fit to data from three experiments; for inhibition at 1 µM: read-out: 5-HT1A % displacement at 10^−6 M. Here is the method: Hippocampal tissue from the brains of male Sprague-Dawley rats (Charles River; weight range 150-250 g) was homogenised in ice-cold 50 mM Tris-HCl buffer (pH 7.7 when measured at 25° C., 1:40 w/v) and centrifuged at 40,000 g at 4° C. for 10 minutes. The pellet was rehomogenised in the same buffer, incubated at 37° C. for 10 minutes and centrifuged at 40,000 g at 4° C. for 10 minutes. The final pellet was resuspended in 50 mM Tris-HCl buffer (pH 7.7) containing 4 mM CaCl2, 0.1% L-ascorbic acid and 10 μM pargyline hydrochloride (equivalent to 6.25 mg wet weight of tissue/ml) and used immediately in the binding assay.
Membranes (400 μl; equivalent to 2.5 mg wet weight of tissue/tube) were incubated with 50 μl of [^3H]8-hydroxy-2-(dipropylamino)tetralin ([^3H]8-OH-DPAT) at a single concentration of 1 nM and 50 μl of distilled water (total binding) or 50 μl of test compound (at a single concentration of 10^−6 M or at 10 concentrations ranging from 10^−11-10^−3 M) or 50 μl of 5-HT (10 μM, non-specific binding) at 25° C. for 30 minutes. The incubation was terminated by rapid filtration under vacuum through Skatron 11734 filters using a Skatron Cell Harvester. Filters were washed with ice-cold 50 mM Tris-HCl buffer, pH 7.7 (at 25° C., wash setting 9,9,0). The scored filter paper discs were punched out into vials, scintillation fluid added and radioactivity determined by liquid scintillation counting.
as §1, §2, §3, §4, §5, §6, §7, §8

Like-named read-outs stand apart in the source and are kept apart here.

T1 sequence (P31652 whole entry): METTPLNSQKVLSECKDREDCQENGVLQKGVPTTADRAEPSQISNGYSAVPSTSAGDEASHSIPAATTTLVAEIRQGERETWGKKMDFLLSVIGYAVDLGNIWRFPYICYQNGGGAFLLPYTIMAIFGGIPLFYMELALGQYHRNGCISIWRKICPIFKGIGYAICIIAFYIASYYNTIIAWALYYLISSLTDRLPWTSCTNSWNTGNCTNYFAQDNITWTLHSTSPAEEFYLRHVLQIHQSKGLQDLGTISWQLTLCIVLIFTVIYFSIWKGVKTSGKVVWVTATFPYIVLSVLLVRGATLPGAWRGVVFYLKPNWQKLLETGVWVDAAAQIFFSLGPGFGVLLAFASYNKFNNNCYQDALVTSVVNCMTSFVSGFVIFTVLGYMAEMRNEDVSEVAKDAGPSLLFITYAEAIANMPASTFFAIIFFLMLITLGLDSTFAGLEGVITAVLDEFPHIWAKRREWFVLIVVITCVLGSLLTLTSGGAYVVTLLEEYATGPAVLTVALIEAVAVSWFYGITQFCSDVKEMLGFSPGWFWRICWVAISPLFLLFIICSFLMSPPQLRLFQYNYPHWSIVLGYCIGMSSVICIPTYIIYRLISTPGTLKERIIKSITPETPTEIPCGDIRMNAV

With `Br.Oc1cccc2sc(C3=CSC4=NCCN34)cc12` [Example 12, 2-(5,6-dihydroimidazo[2,1-b]thiazol-3-yl)benzo[b]thiophen-4-ol hydrobromide], the results for the Ki in test [1] and in test [2] were 0.016 µM and 0.052 µM, respectively.
With `CC1=C(c2cccc3sc(C)cc23)N2CCN=C2S1.Cl` [Example 33, 2-methyl-3-(2-methylbenzo[b]thiophen-4-yl)-5,6-dihydroimidazo[2,1-b]thiazole hydrochloride], the inhibition at 1 µM in test [1] was 62%; in test [2], 99%.
`OCC1=C(c2cc3ccccc3s2)N2CCN=C2S1` [Example 15, [3-(benzo[b]thiophen-2-yl)-5,6-dihydroimidazo[2,1-b]thiazol-2-yl]methanol]: the inhibition at 1 µM in test [1] was determined as 75%; in test [2] (10^−6 M test compound, single determination, [3H]8-OH-DPAT) it was 97%.
Regarding `CSC1=C(c2cccc3sccc23)N2CCN=C2S1.O=C(O)/C=C/C(=O)O` [Example 32, 3-(benzo[b]thiophen-4-yl)-2-(methylthio)-5,6-dihydroimidazo[2,1-b]thiazole fumarate], the Ki – broadly, a measure of affinity in units of concentration, obtained from inhibition or displacement – in test [1] was 0.223 µM; in test [2], 0.093 µM.
The corresponding values for `Br.CC1=C(c2ccc(F)c3sccc23)N2CCN=C2S1` [Example 38, 3-(7-fluorobenzo[b]thiophen-4-yl)-2-methyl-5,6-dihydroimidazo[2,1-b]thiazole hydrobromide] are 0.061 µM and 0.029 µM.
Regarding `Br.c1cc(C2=C(C3CC3)SC3=NCCN32)c2ccsc2c1` [Example 34, 3-(benzo[b]thiophen-4-yl)-2-cyclopropyl-5,6-dihydroimidazo[2,1-b]thiazole hydrobromide], the Ki worked out at 0.053 µM in test [1] and 0.045 µM in test [2].
For `Br.CC1=C(c2ccc3sccc3c2)N2CCN=C2S1` [Example 21, 3-(benzo[b]thiophen-5-yl)-2-methyl-5,6-dihydroimidazo[2,1-b]thiazole hydrobromide], the Ki in test [1] was 0.092 µM; in test [2] it was 0.031 µM.
On to `CC(C)C1=C(c2cccc3sccc23)N2CCN=C2S1.O=C(O)/C=C/C(=O)O` [Example 35, 3-(benzo[b]thiophen-4-yl)-2-(1-methylethyl)-5,6-dihydroimidazo[2,1-b]thiazole fumarate], for which the values for the Ki in test [1] and in test [2] were 0.083 µM and 0.151 µM, respectively.
For `CCC1=C(c2ccc3sccc3c2)N2CCN=C2S1.O=C(O)/C=C/C(=O)O` [Example 31, 3-(benzo[b]thiophen-5-yl)-2-ethyl-5,6-dihydroimidazo[2,1-b]thiazole fumarate], the Ki in test [1] was determined as 0.035 µM; in test [2], 0.102 µM.
Take `Br.Clc1cccc2sc(C3=CSC4=NCCN34)cc12` [Example 1, 3-(4-chlorobenzo[b]thiophen-2-yl)-5,6-dihydroimidazo[2,1-b]thiazole hydrobromide]: the inhibition at 1 µM in test [1] was found to be 97%; in test [2], 60%.
In the same order, the values of `Cc1cccc2sc(C3=CSC4=NCCN34)cc12.Cl` [Example 14, 3-(4-methylbenzo[b]thiophen-2-yl)-5,6-dihydroimidazo[2,1-b]thiazole hydrochloride] are 96% and 64%.
For `Br.CC1=C(c2cc3c(Cl)cccc3s2)N2CCCN=C2S1` [Example 17, 3-(4-chlorobenzo[b]thiophen-2-yl)-2-methyl-6,7-dihydro-5H-thiazolo[3,2-a]pyrimidine hydrobromide], the inhibition at 1 µM in test [1] was determined as 84%; in test [2], 82%.
In the case of `C=CC1=C(c2cccc3sccc23)N2CCN=C2S1.Cl` [Example 39, 3-(benzo[b]thiophen-4-yl)-2-vinyl-5,6-dihydroimidazo[2,1-b]thiazole hydrochloride], the results for the inhibition at 1 µM in test [1] and in test [2] were 70% and 85%, respectively.
On to `OCC1=C(c2cc3c(Cl)cccc3s2)N2CCN=C2S1` [Example 4, [3-(4-chlorobenzo[b]thiophen-2-yl)-5,6-dihydroimidazo[2,1-b]thiazol-2-yl]methanol], for which the Ki in test [1] was determined as 0.036 µM; in test [2], 0.0022 µM.
In the case of `CCC1=C(c2cccc3sccc23)N2CCN=C2S1.O=C(O)/C=C/C(=O)O` [Example 25, 3-(benzo[b]thiophen-4-yl)-2-ethyl-5,6-dihydroimidazo[2,1-b]thiazole fumarate], in test [1], the affinity corresponds to a Ki of 0.169 µM. Also, the inhibition at 1 µM in test [2] came to 92%.
On to `Br.CCC1=C(c2cc3cc(Cl)ccc3s2)N2CCN=C2S1` [Example 11, 3-(5-chlorobenzo[b]thiophen-2-yl)-2-ethyl-5,6-dihydroimidazo[2,1-b]thiazole hydrobromide], for which the inhibition at 1 µM in test [1] was 97%; in test [2] it was 80%.
In the case of `Br.CC1=C(c2cc3ccccc3s2)N2CCN=C2S1` [Example 6, 3-(benzo[b]thiophen-2-yl)-2-methyl-5,6-dihydroimidazo[2,1-b]thiazole hydrobromide], the Ki turned out to be 0.0444 µM in test [1] and 0.0097 µM in test [2].
In the same order, the values of `Br.CC1=C(c2cc3c(Cl)cccc3s2)N2CCN=C2S1` [Example 10, 3-(4-chlorobenzo[b]thiophen-2-yl)-2-methyl-5,6-dihydroimidazo[2,1-b]thiazole hydrobromide] are 0.0293 µM and 0.0059 µM.
Take `OCC1=C(c2cccc3sccc23)N2CCN=C2S1` [Example 3, [3-(benzo[b]thiophen-4-yl)-5,6-dihydroimidazo[2,1-b]thiazol-2-yl]methanol]: the Ki in test [1] is 0.175 µM; in test [2], 0.0204 µM.
